# From patent US20260258025A1, “INHIBITORS OF TDP-43 AND TAU AGGREGATION” (Aquinnah Pharmaceuticals, inc., priority 2023, published 2026)
# Assays:
# Assay type in all cases: cell-based
# [1] = system: TDP-43 aggregation; test: TDP-43 aggregation assay in SY5Y TDP-43WT cells (high content imaging); settings: Homo sapiens, tetracycline induction 24 hrs, 1 hour compound pre-treatment, sodium arsenite 23 hrs, 8-point dose curve, percentage of cells with TDP-43 aggregates, read-out: IC50, Inhibition of TDP-43 Aggregation
# In short: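 Tetracycline-inducible eGFP-tagged wild-type human TDP-43 in SH-SY5Y cells, induced 24 h ([…]), compound pre-treated 1 h, then sodium arsenite […] for 23 h. Fixed cells imaged; percentage of DAPI-counted cells with aggregates gives IC50 from 8-point curves.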
# [2] = system: tau stress granules; test: SY5Y-tT1 tau arsenite assay (tau stress granules per cell); settings: SY5Y-tT1 cells, 2 hours compound, 90 minutes arsenite, 50% reduction of granules per cell, read-out: IC50, Inhibitor Activity of Tau Stress Granules
# Method: Example 91: In Vitro Efficacy Assay of Exemplary Compounds—SY5Y-tT1 Tau Arsenite/Thapsigargin Assay
# • Before harvesting cells—checked to see if cells are ~80% confluency in their flask • 1. Aspirated growth media from flask. • 2. Added 4 mL of (0.25%) trypsin-EDTA (REF: 25200-056) • 3. Placed in 37° C. incubator for 5 minutes. • 4. Removed from incubator and added 11 mL growth media, washing any remaining cells adhered to the bottom of the flask. • 5. Transferred cell containing media to a 50 mL conical tube and spun for 5 minutes at 800 rpm. • 6. Aspirated supernatant and added 5 mL of growth media to cell pellet, triturating to make a homogenous cell solution. • 7. After counting cells, followed one of these plating paradigms: • (A) If treating with arsenite, plated cells at […] with tetracycline solution (5 mg/mL) added to cell solution at 1:5000 • (B) If treating with thapsigargin, plated cells at 4,000 cells/well with tetracycline solution (5 mg/mL) added to cell solution at 1:5000 • 8. Incubated at 37° C. for 48 hours.
# • Solubilized all compounds to 10 mM prior to making dilution plates • 1. To a 96-well U-bottom plate (Falcon Non-Tissue Culture Treated Plates REF: 351177) added 120 μL growth media to all 96 wells, with an additional 58.2 μL to row A. • 2. Added 1.8 μL of 10 mM compound stock to wells A1-11, adding 1.8 μL of 10 mM PERKi stock (Selleck Chemistry GSK2606414 Cat No. S7307) as the control. • 3. Serially diluted 60 μL from row A down through each row, finishing with 180 μL total volume in row H. • 4. Transferred 12.5 μL of each dilution plate well to the correlating wells in cell plate, being careful not to touch cells adhered to bottom of the plate. • 5. Incubated for 2 hours.
# • 1. Added 720 μL of 0.05 M sodium arsenite solution (CAS #: 7784-46-5) to 10 mL of growth media for a final concentration of […] arsenite solution, mix well. • 2. Added 12.5 μL of arsenite solution to all wells of compounds treated plate intended for arsenite treatment. • 3. Incubated at 37° C. for 90 minutes.
# • Before beginning this part of the protocol: • Made 1×PBS by diluting 10× stock (10×, Phosphate buffered saline, Fisher #BP399— • 4) in sterile deionized water. • Diluted paraformaldehyde (16% Paraformaldehyde solution, Electron Microscopy Sciences #15710-S) to 4% in 1×PBS. • Diluted Hoechst stain (Life Technologies #H3570) 1:10,000 in 1×PBS (1 μL Hoechst per 10 mL 1×PBS). • Both solutions were protected from light. • 1) After compound treatment, aspirated media from cell plates and gently added in 50 μL of 4% paraformaldehyde for 10 min protected from light at room temperature. • 2) Aspirated paraformaldehyde solution and gently added 50 μL of 1:10,000 Hoechst solution to each well and incubated for 10 min protected from light at room temperature. • 3) Aspirated Hoechst solution and gently added 100 μL 1×PBS. Cover the plate with aluminum film (VWR #60941-126). • 4) Stored at 4° C. or used immediately for imaging on ThermoFisher CX7 imager.
# Exemplary compounds of the disclosed herein were evaluated for efficacy for inhibitor activity of tau stress granules in the arsenite assay and quantified as drug concentration providing a 50% reduction (IC50) of granules per cell is shown in Table 4.
# In Table 4 below, A indicates an IC50 (μM)<0.5 μM, B indicates an IC50 (μM) 0.5 μM to <1 μM, C indicates an IC50 (μM) 1 μM to <2 μM, and D indicates an IC50 (μM) 2 μM to <6 μM.
# [3] = system: TDP-43 splicing function; test: qRT-PCR of TDP-43 sentinel transcripts (STMN2, ELAVL3, PFKP) in MG-132 challenged human motor neurons; parameters: effect of stressor on splicing changes associated with TDP-43 loss of function (qPCR): dose or concentration left out as unconfirmed; settings: human motor neurons, relative to unstressed
# Method: Cell culture and differentiation of iPS Cells into motor neurons. Pluripotent stem cells were grown with mTeSR Plus medium on tissue culture dishes coated with Matrigel, and maintained in 5% CO2 incubators at 37° C. Stem cells were passaged as small aggregates of cells after 1 mM EDTA treatment. […] was added to the cultures for 16-24 h after dissociation to prevent cell death. The iP11NA iPS cell line was acquired from ALSTEM. This cell line was generated from pre-made footprint-free human iPS cells with DOX inducible Ngn2 that has been stably integrated into the human AAVS1 “Safe Harbor” site, and provides a convenient means to differentiate human iPS cells into neurons rapidly and efficiently. Motor neuron differentiation was achieved using a modified 5-day strategy.
# This approach relies on neural induction through small molecule inhibition of SMAD signaling, accelerated neural differentiation through forced Ngn2 expression, and motor neuron patterning through the activation of retinoic acid and Sonic Hedgehog signaling pathways. In brief, pluripotent stem cells were dissociated to single cells using accutase and plated at a density of 80,000 cells per cm^2 on Matrigel-coated culture plates with mTeSR Plus medium supplemented with ROCK inhibitor (10 μM Y-27632, ATCC). When cells reached 50% confluency, medium was changed to differentiation medium BrainPhys medium supplemented with N2-A, SM1, […]. This time point was defined as day 0 (d0) of motor neuron differentiation. Treatment with small molecules was carried out as follows: 2 μg/mL Doxycyline, 10 μM SB431542, 100 nM LDN-193189, […] and 1 μM Smoothend agonist and 10 uM Edu. The full list of materials and their descriptions is included below in Table 5.
# Total RNA was isolated from d14 motor neurons for qRT-PCR assays using TaqMan™ Fast Advanced Cells-to-CT™ Kit according to manufacturer's instructions. 7500 neurons per well of 96-well culture were routinely used for processing. qRT-PCR was then performed using multiplex assays from IDT using PrimeTime™ Gene Expression Master Mix (IDT) on a QuantStudio6Pro system. Quantitative levels for all genes assayed were normalized using GAPDH expression. […] Primers and probes used in this study are in Table 5.
# To this end, we first examined whether proteasome inhibition, which triggers TDP-43 nuclear depletion, also leads to splicing defects associated with TDP-43 loss-of function. For comparison, we also treated human motor neurons with puromycin, which recruits TDP-43 to stress granules in the cytoplasm. We chose to analyze several transcripts that have relevant connections to ALS biology including STMN26,12, PFKP19, and ELAVL320,21. We used quantitative reverse transcription-polymerase chain reaction (qRT-PCR) to validate that in MG-132-treated motor neurons these transcripts were altered like in ALS patients.
# Using this method, we next obtained RNA from independent motor neuron biological replicates after proteasome inhibition and Compound 183 treatment to determined by qRT-PCR the relative abundance of these transcripts. […] A dose-responsive effect was further tested for Compound 183 using qRT-PCR in this model. […] Collectively, the data support the notion that Compound 183 promotes TDP-43 nuclear function under proteotoxic stress.
IC50 [1],IC50 [2],SMILES,effect of stressor on splicing changes associated with TDP-43 loss of function (qPCR) [3]
< 500 nM,500 to 1000 nM,"COCCN1CCC(c2ccc(-c3cc(C)c(C(=O)N4CC[C@H](N)C4)s3)cc2)CC1 [Compound 142, (S)-(3-aminopyrrolidin-1-yl)(5-(4-(1-(2-methoxyethyl)piperidin-4-yl)phenyl)-3-methylthiophen-2-yl)methanone]",
< 500 nM,500 to 1000 nM,"CCN1CCC(c2ccc(-c3cc(C)c(C(=O)N4CC[C@H](N)C4)s3)cc2)CC1 [Compound 176, (S)-(3-aminopyrrolidin-1-yl)(5-(4-(1-ethylpiperidin-4-yl)phenyl)-3-methylthiophen-2-yl)methanone]",
< 500 nM,< 500 nM,"Cc1cc(-c2ccc(C3CCN(C4CCCC4)CC3)cc2)sc1C(=O)N1CC[C@H](N)C1 [Compound 180, (S)-(3-aminopyrrolidin-1-yl)(5-(4-(1-cyclopentylpiperidin-4-yl)phenyl)-3-methylthiophen-2-yl)methanone]",
< 500 nM,500 to 1000 nM,"Cc1cc(-c2ccc(C3CCN(C4CCC4)CC3)cc2)sc1C(=O)N1CC[C@H](N)C1 [Compound 181, (S)-(3-aminopyrrolidin-1-yl)(5-(4-(1-cyclobutylpiperidin-4-yl)phenyl)-3-methylthiophen-2-yl)methanone]",
< 500 nM,< 500 nM,"CCCN1CCC(c2ccc(-c3cc(C)c(C(=O)N4CC[C@H](N)C4)s3)cc2)CC1 [Compound 182, (S)-(3-aminopyrrolidin-1-yl)(3-methyl-5-(4-(1-propylpiperidin-4-yl)phenyl)thiophen-2-yl)methanone]",
< 500 nM,< 500 nM,"Cc1cc(-c2ccc(C3CCN(C)CC3)cc2)sc1C(=O)N1CC[C@H](N)C1 [Compound 201, (S)-(3-aminopyrrolidin-1-yl)(3-methyl-5-(4-(1-methylpiperidin-4-yl)phenyl)thiophen-2-yl)methanone]",

# The next lines start with the molecule.
SMILES,IC50 [1],IC50 [2],effect of stressor on splicing changes associated with TDP-43 loss of function (qPCR) [3]
"CCN1CCN(c2ccc(-c3cc(C)c(C(=O)N4CC[C@H](N)C4)s3)cc2)CC1 [Compound 155, (S)-(3-aminopyrrolidin-1-yl)(5-(4-(4-ethylpiperazin-1-yl)phenyl)-3-methylthiophen-2-yl)methanone]",< 500 nM,500 to 1000 nM,
"Cc1cc(-c2ccc(C3CCN(C4CCS(=O)(=O)CC4)CC3)cc2)sc1C(=O)N1CC[C@H](N)C1 [Compound 156, (S)-(3-aminopyrrolidin-1-yl)(5-(4-(1-(1,1-dioxidotetrahydro-2H-thiopyran-4-yl)piperidin-4-yl)phenyl)-3-methylthiophen-2-yl)methanone]",< 500 nM,< 500 nM,
"Cc1cc(-c2ccc(C3CCN(C4CCOCC4)CC3)cc2)sc1C(=O)N1CC[C@H](N)C1 [Compound 178, (S)-(3-aminopyrrolidin-1-yl)(3-methyl-5-(4-(1-(tetrahydro-2H-pyran-4-yl)piperidin-4-yl)phenyl)thiophen-2-yl)methanone]",< 500 nM,< 500 nM,
"Cc1cc(-c2ccc(C3CCN(C4CCCCC4)CC3)cc2)sc1C(=O)N1CC[C@H](N)C1 [Compound 179, (S)-(3-aminopyrrolidin-1-yl)(5-(4-(1-cyclohexylpiperidin-4-yl)phenyl)-3-methylthiophen-2-yl)methanone]",< 500 nM,500 to 1000 nM,
"Cc1cc(-c2ccc3c(c2)CNCC3)sc1C(=O)N1CC[C@H](N)C1 [Compound 198, (S)-(3-aminopyrrolidin-1-yl)(3-methyl-5-(1,2,3,4-tetrahydroisoquinolin-7-yl)thiophen-2-yl)methanone]",< 500 nM,2000 to 6000 nM,
"Cc1cc(-c2ccc3c(c2)CCNC3)sc1C(=O)N1CC[C@H](N)C1 [Compound 199, (S)-(3-aminopyrrolidin-1-yl)(3-methyl-5-(1,2,3,4-tetrahydroisoquinolin-6-yl)thiophen-2-yl)methanone]",< 500 nM,2000 to 6000 nM,
"Cc1cc(-c2ccc(C(C)N(C)C)cc2)sc1C(=O)N1CC[C@H](N)C1 (stereo partly drawn) [Compound 200, ((S)-3-aminopyrrolidin-1-yl)(5-(4-(1-(dimethylamino)ethyl)phenyl)-3-methylthiophen-2-yl)methanone]",< 500 nM,2000 to 6000 nM,
"COc1ccc(C[C@H](N)C(=O)N[C@H]2[C@@H](O)[C@H](n3cnc4c(N(C)C)ncnc43)O[C@@H]2CO)cc1 [puromycin, reference compound]",,,failed to induce transcription changes consistent with TDP-43 loss of function
